# Test results as given in ChEMBL document CHEMBL3507680, “University of Dundee, Gates Library screen for HepG2 cell viability”.
# Assay: Human HepG2 cell viability assay in 384 well format
# Format: toxicity, cell-based
# Parameters: dose 125 nL, time 70.5 hour; concentration not given beside the values
# Details: HepG2 cells, read-out: Inhibition
row,Compound,cytotoxicity at 70.5 h [%]
1,COCC(O)CN(C)c1ccnc2cc(F)ccc12 (stereo unspecified),13.1
2,CCS(=O)(=O)N1C[C@H]2CN(Cc3cccc(F)c3)C(=O)[C@H]2C1,-3.13
3,CCOc1cc(CN(C)Cc2ccccc2)ccc1OC(F)F,-6.62
4,Cc1ccc(-c2nc(CN3CCn4c(nnc4C4CC4)C3)co2)cc1,-5.93
5,CNC(=O)N1CCOCC1c1c(C)nn(C)c1C (stereo unspecified),2.35
6,COc1ccc(C(C)Nc2ncc(C(N)=O)cc2Cl)cc1OC (stereo unspecified),-10.8
7,CCN(CCO)Cc1cn(-c2cccc(F)c2)nc1-c1ccc(C)o1,-14.6
8,CCCc1noc(CS(=O)(=O)CC(=O)NC(C)CCC)n1 (stereo unspecified),-5.83
9,Cc1nc(-c2cccc(C(=O)O)c2)cc(C2CCN(C(C)C)C2)n1 (stereo unspecified),-2.07
10,Nc1nccnc1C(=O)NCCCNc1ccc(C(F)(F)F)cn1,2.59
11,CCc1ccc(C2COCCN2C(=O)Nc2ccc(C(N)=O)c(Cl)c2)o1 (stereo unspecified),-2.09
12,CCN(C(=O)NCCc1cccc(F)c1F)C(C)CS(C)(=O)=O (stereo unspecified),-5.85
13,CN(C)C(=O)C1CN(Cc2ccc(C#N)cc2F)c2ccccc2O1 (stereo unspecified),-0.947
14,CCC(C)(NCC(=O)Nc1nc(C)cs1)c1nc(C)cs1 (stereo unspecified),-0.105
15,Cc1cnn(CC2CCCCN2C(=O)Cc2cn3ccsc3n2)c1 (stereo unspecified),11.4
16,Cn1cnnc1C1CCCN(C(=O)c2cc(Cl)c3c(c2)OCO3)C1 (stereo unspecified),-11.6
17,Cc1cnn(CC2CN(Cc3nnc(-c4occc4C)o3)CCO2)c1 (stereo unspecified),-18.4
18,CC(C)c1cc(=O)[nH]c(-n2nc(C3CC3)cc2N)n1,58.1
19,CC(=O)N1CCCC(c2ccnc(Nc3cnccn3)n2)C1 (stereo unspecified),-7.2
20,O=C(CCc1ccccc1)N1CCN(C(=O)c2ccc[nH]2)CC1,-12.3
21,CNC(=O)c1cnc2n1CCN(Cc1cccnc1)C2,-2.74
22,Cc1ncc(CN2CCC(c3ccnn3C)CC2)n1-c1ccccc1,2.82
23,CNC(=O)c1cc2c(nc1N(C)C)CCN(c1ncccn1)CC2,-12

row,Compound,cytotoxicity at 70.5 h [%]
1,Cn1nnc2c1CCN(C(C(=O)N1CCCCC1)c1ccccc1)C2 (stereo unspecified),-7.33
2,CCc1[nH]ncc1C(=O)N1CCCC(n2nc(C)cc2C)C1 (stereo unspecified),-10.3
3,O=c1[nH]c(-c2ccccn2)nc2c1CCN(S(=O)(=O)N1CCCC1)C2,-3.27
4,CC(O)CN(CC(=O)NC(=O)NCC(F)(F)F)c1ccccc1 (stereo unspecified),-11.1
5,Cc1nc(C2CCCN2Cc2ccc(S(=O)(=O)N(C)C)o2)no1 (stereo unspecified),-5.97
6,Cc1cc(C(F)(F)F)nc(CCNC(C)Cn2cncn2)n1 (stereo unspecified),-11.4
7,CN(C)Cc1nnc(C2CCN(c3ncccc3Cl)CC2)n1C1CC1,8.65
8,COc1ncnc(N(C)C)c1NC(=O)Cc1c[nH]c2ccc(F)cc12,-7.3
9,CN(Cc1ccc(F)cc1)C(=O)c1ccoc1CN1CCNC(=O)C1,-18.2
10,C[C@@H]1CN(Cc2cc3ccccc3n2C)CC[C@@]1(O)C1CC1,-3.91
11,CN(C)CCCn1ccc(-c2cccc(-c3cncnc3)c2)n1,-9.25
12,CN(C)C(=O)c1ccc(-c2cccc3c2CCNC3)o1,-5.11
13,Cc1ncnc2c1CCN(C(=O)N(C)C)CC2,-0.115
14,O=C(c1ccncc1F)N1CCCC(c2nccn2CC2CCC2)C1 (stereo unspecified),-21.7
15,CC(=O)N1CCO[C@@H]2CN(S(=O)(=O)C3CC3)C[C@@H]2C1,-0.958
16,NC(=O)CC1CCN(C(=O)c2csc(-c3ccccc3F)n2)CC1,-18.8
17,CC(Cn1cccn1)NC(=O)NCc1cccnc1 (stereo unspecified),-9.07
18,Cc1nc(Cn2c3c(ccc2=O)CCN(CC2CC2)CC3)cs1,-2.72
19,COc1ccc(C)cc1C(C)NC(=O)CCn1cncn1 (stereo unspecified),-5.61
20,COc1ccc(C)cc1-c1csc(N)c1C#N,13.2
21,NC(=O)N1CC(OCc2cccc3ccccc23)C1,2.87
22,O=C(c1cccs1)N1CCC[C@]2(C[C@@H](OCc3ccncc3)CO2)C1,-4.03
23,c1cc(CNc2cnc(C3CCCN3)cn2)ccn1 (stereo unspecified),-1.63
